# In ChEMBL document CHEMBL5634188, “Expanding TPD Horizons: Innovative Strategies Targeting BCL6 and SMARCA2” (ACS Med Chem Lett, 2024):
# Experiments:
# Type in all cases: cell-based
# [1] = biological target: Protein cereblon/B-cell lymphoma 6 protein (Homo sapiens) (UniProt Q96SW2+P41182); test: PROTAC activity at CRBN/N-terminal HiBiT tagged BCL6 in human HT-1080 cells assessed as induction of BCL6 degradation by measuring minimum efficacy incubated for 5 hrs by NANO-GLO HiBiT Lytic reagent based luminescence plate reader analysis
# Chain of Protein cereblon/B-cell lymphoma 6 protein (Homo sapiens) (Q96SW2 whole entry, looked up, other chains not shown): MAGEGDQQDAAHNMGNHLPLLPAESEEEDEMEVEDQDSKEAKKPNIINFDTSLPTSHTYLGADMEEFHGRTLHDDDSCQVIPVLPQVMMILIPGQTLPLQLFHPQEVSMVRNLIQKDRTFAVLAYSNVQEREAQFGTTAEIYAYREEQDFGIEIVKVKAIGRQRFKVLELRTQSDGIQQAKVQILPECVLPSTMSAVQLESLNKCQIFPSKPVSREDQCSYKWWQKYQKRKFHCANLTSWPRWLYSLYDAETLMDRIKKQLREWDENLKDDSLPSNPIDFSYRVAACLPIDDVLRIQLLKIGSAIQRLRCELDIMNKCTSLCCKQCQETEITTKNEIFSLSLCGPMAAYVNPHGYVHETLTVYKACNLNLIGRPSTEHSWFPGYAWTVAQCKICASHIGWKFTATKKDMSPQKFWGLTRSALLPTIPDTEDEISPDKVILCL
# [2] = biological target: T1, Protein cereblon/SWI/SNF-related matrix-associated actin-dependent regulator of chromatin subfamily A member 2 (Homo sapiens, UniProt P51531+Q96SW2); test: PROTAC activity at CRBN/N-terminal HiBiT-tagged SMARCA2 in human A549 cells assessed as induction of SMARCA2 degradation incubated for 6 hrs by Nano-Glo HiBiT Lytic reagent based luminescence plate reader analysis
# T1 sequence (P51531 whole entry): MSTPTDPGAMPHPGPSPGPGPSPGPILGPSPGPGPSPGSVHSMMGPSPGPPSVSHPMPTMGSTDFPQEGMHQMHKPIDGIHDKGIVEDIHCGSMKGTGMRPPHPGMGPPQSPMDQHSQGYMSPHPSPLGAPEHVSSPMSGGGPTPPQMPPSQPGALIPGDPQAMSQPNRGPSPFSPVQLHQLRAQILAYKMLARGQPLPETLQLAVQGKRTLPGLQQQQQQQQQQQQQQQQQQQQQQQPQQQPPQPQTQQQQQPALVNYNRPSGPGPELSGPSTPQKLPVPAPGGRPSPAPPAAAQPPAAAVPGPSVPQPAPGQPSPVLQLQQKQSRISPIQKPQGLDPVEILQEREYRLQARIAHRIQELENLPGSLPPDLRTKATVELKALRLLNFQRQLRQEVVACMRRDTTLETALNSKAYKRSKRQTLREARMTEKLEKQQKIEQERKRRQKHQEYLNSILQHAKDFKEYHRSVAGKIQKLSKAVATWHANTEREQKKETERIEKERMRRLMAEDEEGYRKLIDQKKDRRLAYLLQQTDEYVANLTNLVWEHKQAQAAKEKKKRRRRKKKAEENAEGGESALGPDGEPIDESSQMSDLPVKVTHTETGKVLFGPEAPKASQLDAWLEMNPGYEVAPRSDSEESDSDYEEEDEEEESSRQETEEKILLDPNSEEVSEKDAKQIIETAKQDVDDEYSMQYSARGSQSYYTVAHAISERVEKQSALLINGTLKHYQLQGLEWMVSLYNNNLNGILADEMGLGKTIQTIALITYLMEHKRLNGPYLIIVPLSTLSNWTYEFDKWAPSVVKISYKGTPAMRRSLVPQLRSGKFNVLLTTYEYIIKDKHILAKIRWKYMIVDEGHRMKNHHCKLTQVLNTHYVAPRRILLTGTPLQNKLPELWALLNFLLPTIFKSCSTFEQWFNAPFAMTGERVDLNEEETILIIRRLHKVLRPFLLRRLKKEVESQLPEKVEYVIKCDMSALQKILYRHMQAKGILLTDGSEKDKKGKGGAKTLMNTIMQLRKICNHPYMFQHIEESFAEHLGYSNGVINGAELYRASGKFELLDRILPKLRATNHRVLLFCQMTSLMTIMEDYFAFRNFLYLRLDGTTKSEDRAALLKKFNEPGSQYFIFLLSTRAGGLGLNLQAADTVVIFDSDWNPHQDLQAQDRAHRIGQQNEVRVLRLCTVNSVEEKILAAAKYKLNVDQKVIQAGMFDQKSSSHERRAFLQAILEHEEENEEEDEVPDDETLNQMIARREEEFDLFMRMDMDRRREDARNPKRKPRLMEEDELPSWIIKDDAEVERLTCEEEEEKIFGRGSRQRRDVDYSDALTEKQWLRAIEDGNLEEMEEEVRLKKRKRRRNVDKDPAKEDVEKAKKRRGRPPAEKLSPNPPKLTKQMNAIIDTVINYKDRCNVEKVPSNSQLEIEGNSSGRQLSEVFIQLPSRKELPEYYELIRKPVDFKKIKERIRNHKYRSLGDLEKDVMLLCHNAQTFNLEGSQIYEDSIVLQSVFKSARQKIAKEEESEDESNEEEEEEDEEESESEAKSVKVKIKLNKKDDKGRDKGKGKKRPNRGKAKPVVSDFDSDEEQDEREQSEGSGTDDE
# T1 sequence (Q96SW2 whole entry): as the sequence (Q96SW2 whole entry, looked up, other chains not shown) above
# [3] = biological target: Protein cereblon/B-cell lymphoma 6 protein (Homo sapiens, UniProt P41182+Q96SW2); test: PROTAC activity at CRBN/N-terminal HiBiT tagged BCL6 in human HT-1080 cells assessed as induction of BCL6 degradation incubated for 5 hrs by NANO-GLO HiBiT Lytic reagent based luminescence plate reader analysis
# Chain of Protein cereblon/B-cell lymphoma 6 protein (Q96SW2 whole entry, looked up, other chains not shown): as above
# [4] = biological target: T1, Protein cereblon/SWI/SNF-related matrix-associated actin-dependent regulator of chromatin subfamily A member 2; test: PROTAC activity at CRBN/N-terminal HiBiT-tagged SMARCA2 in human A549 cells assessed as induction of SMARCA2 degradation by measuring maximal efficacy incubated for 6 hrs by Nano-Glo HiBiT Lytic reagent based luminescence plate reader analysis relative to control
Structure (SMILES),Emin [1],DC50 [2],other results
Nc1nnc(-c2ccccc2O)cc1C1C[C@H]2COC[C@@H](C1)N2c1cccc(OC2CCN(C(=O)CCC3CN(c4cccc5c4CCN5[C@@H]4CCC(=O)NC4=O)C3)CC2)c1 (stereo not given in full),–,13 nM,–
CN(c1cccc(N2CCC(O)(CC(=O)N3CCC(Oc4cccc(N5[C@@H]6COC[C@H]5CC(c5cc(-c7ccccc7O)nnc5N)C6)c4)CC3)CC2)c1)C1CCC(=O)NC1=O (stereo not given in full),–,13.1 nM,–
C[C@H](C1CCN(c2ncc(Cl)c(Nc3ccc4c(c3)c3c(c(=O)n4C)OCC(F)(F)[C@H](C4CC4)N3)n2)CC1)C1CCN(c2cccc3c(C4CCC(=O)NC4=O)nn(C)c23)CC1 (stereo not given in full),< 30%,–,EC50 [3]: ≤ 25 nM
Nc1nnc(-c2ccccc2O)cc1C1C[C@H]2COC[C@@H](C1)N2c1cccc(OC2CCN(C(=O)CC3(O)CCN(c4cccc5c4CCN5C4CCC(=O)NC4=O)CC3)CC2)c1 (stereo not given in full),–,5.8 nM,Emax [4]: 22.9%
CN(C(=O)N1CCC(Oc2cccc(N3[C@@H]4COC[C@H]3CC(c3cc(-c5ccccc5O)nnc3N)C4)c2)CC1)C1CCN(c2cccc3c2CCN3[C@@H]2CCC(=O)NC2=O)CC1 (stereo not given in full),–,9.47 nM,–

# Further lines, with some results ahead:
Emin [1],DC50 [2],Structure (SMILES),other results
< 30%,–,C[C@H]1CN(c2ncc(Cl)c(Nc3ccc4c(c3)c3c(c(=O)n4C)OCC(F)(F)[C@H](C4CC4)N3)n2)CCN1CC1CCN(c2cccc3c(C4CCC(=O)NC4=O)nn(C)c23)CC1 (stereo not given in full),–
< 30%,–,Cn1c(=O)c2c(c3cc(Nc4nc(N5CCN(CC6CCN(c7cccc8c7C(=O)N(C7CCC(=O)NC7=O)C8=O)CC6)CC5)ncc4Cl)ccc31)N[C@@H](C1CC1)C(F)(F)CO2 (stereo not given in full),–
< 30%,–,Cn1nc(C2CCC(=O)NC2=O)c2cccc(N3CCN(CC4CCN(c5ncc(Cl)c(Nc6ccc7c(c6)c6c(c(=O)n7C)OCC(F)(F)[C@H](C7CC7)N6)n5)CC4)CC3)c21 (stereo not given in full),–
